Reference: ChEMBL document CHEMBL3868618, “Synthesis and biological evaluation of chalcone derivatives containing aminoguanidine or acylhydrazone moieties” (Bioorg Med Chem Lett, 2016)
≈ marks a conversion by molar mass, not a printed value.

Key:
Pseudomonas aeruginosa = assay: Antibacterial activity against Pseudomonas aeruginosa 2742 measured after 24 hrs by two-fold serial dilution method; assay type: functional; conditions: Pseudomonas aeruginosa, 2742, 24 h
Staphylococcus aureus [1] = assay: Antibacterial activity against quinolone-resistant Staphylococcus aureus 3519 measured after 24 hrs by two-fold serial dilution method; assay type: functional; conditions: Staphylococcus aureus, 3519, 24 h
Staphylococcus aureus [2] = assay: Antibacterial activity against Staphylococcus aureus 503 measured after 24 hrs by two-fold serial dilution method; assay type: functional; conditions: Staphylococcus aureus, 503, 24 h
Staphylococcus aureus [3] = assay: Antibacterial activity against methicillin-resistant Staphylococcus aureus 3167 measured after 24 hrs by two-fold serial dilution method; assay type: functional; conditions: Staphylococcus aureus, 3167, 24 h
Staphylococcus aureus [4] = assay: Antibacterial activity against quinolone-resistant Staphylococcus aureus 3505 measured after 24 hrs by two-fold serial dilution method; assay type: functional; conditions: Staphylococcus aureus, 3505, 24 h
Staphylococcus aureus [5] = assay: Antibacterial activity against methicillin-resistant Staphylococcus aureus 3506 measured after 24 hrs by two-fold serial dilution method; assay type: functional; conditions: Staphylococcus aureus, 3506, 24 h
Mus musculus = assay: Antiinflammatory activity in mouse assessed as inhibition of xylene-induced ear edema at 100 mg/kg, ip administered 30 mins before xylene challenge measured after 30 mins relative to DMSO-control; assay type: functional
Candida albicans = assay: Antifungal activity against Candida albicans 7535 measured after 24 hrs by two-fold serial dilution method; assay type: functional; conditions: Candida albicans, 7535, 24 h
Escherichia coli [6] = assay: Antibacterial activity against Escherichia coli 1924 measured after 24 hrs by two-fold serial dilution method; assay type: functional; conditions: Escherichia coli, 1924, 24 h
Salmonella typhimurium = assay: Antibacterial activity against Salmonella typhimurium 1926 measured after 24 hrs by two-fold serial dilution method; assay type: functional, Salmonella enterica subsp. enterica serovar Typhimurium; conditions: Salmonella enterica, 1926, 24 h
Streptococcus mutans = assay: Antibacterial activity against Streptococcus mutans 3065 measured after 24 hrs by two-fold serial dilution method; assay type: functional; conditions: Streptococcus mutans, 3065, 24 h
Staphylococcus aureus [7] = assay: Antibacterial activity against Staphylococcus aureus 4220 measured after 24 hrs by two-fold serial dilution method; assay type: functional; conditions: Staphylococcus aureus, 4220, 24 h
Staphylococcus aureus [8] = assay: Antibacterial activity against Staphylococcus aureus 209 measured after 24 hrs by two-fold serial dilution method; assay type: functional; conditions: Staphylococcus aureus, 209, 24 h
Escherichia coli [9] = assay: Antibacterial activity against Escherichia coli 1356 measured after 24 hrs by two-fold serial dilution method; assay type: functional; conditions: Escherichia coli, 1356, 24 h

Row | SMILES | MIC (Pseudomonas aeruginosa) [µg/mL] | MIC (Staphylococcus aureus [1]) [µg/mL] | MIC (Staphylococcus aureus [2]) [µg/mL] | MIC (Staphylococcus aureus [3]) [µg/mL] | MIC (Staphylococcus aureus [4]) [µg/mL] | MIC (Staphylococcus aureus [5]) [µg/mL] | inhibition in vivo at 100 mg/kg (Mus musculus) [%] | MIC (Candida albicans) [µg/mL] | MIC (Escherichia coli [6]) [µg/mL] | MIC (Salmonella typhimurium) [µg/mL] | MIC (Streptococcus mutans) [µg/mL] | MIC (Staphylococcus aureus [7]) [µg/mL] | MIC (Staphylococcus aureus [8]) [µg/mL] | MIC (Escherichia coli [9]) [µg/mL]
1 | O=C(N/N=C/c1ccc(/C=C/C(=O)c2ccccc2Cl)cc1)c1cccc(Cl)c1 | > 64 | 32 (≈ 75.6 µM) | 32 (≈ 75.6 µM) | 32 (≈ 75.6 µM) | 32 (≈ 75.6 µM) | 32 (≈ 75.6 µM) | 43 | > 64 | > 64 | > 64 | > 64 | 32 (≈ 75.6 µM) | 32 (≈ 75.6 µM) | > 64
2 | Cc1ccc(C(=O)/C=C/c2ccc(/C=N/NC(=O)c3ccccc3)cc2)c(C)c1 | > 64 | > 64 | > 64 | > 64 | > 64 | > 64 | 0.18 | > 64 | > 64 | > 64 | > 64 | > 64 | > 64 | > 64
3 | O=C(/C=C/c1ccc(/C=N/NC(=O)c2ccncc2)cc1)c1cccc(Br)c1 | > 64 | 64 (≈ 147 µM) | 64 (≈ 147 µM) | 32 (≈ 73.7 µM) | 64 (≈ 147 µM) | 32 (≈ 73.7 µM) | 14 | > 64 | > 64 | > 64 | > 64 | 64 (≈ 147 µM) | 64 (≈ 147 µM) | > 64
4 | O=C(N/N=C/c1ccc(/C=C/C(=O)c2ccccc2Br)cc1)c1ccncc1 | > 64 | > 64 | > 64 | > 64 | > 64 | > 64 | 48.7 | 64 (≈ 147 µM) | > 64 | > 64 | 32 (≈ 73.7 µM) | 64 (≈ 147 µM) | 64 (≈ 147 µM) | > 64
5 | O=C(/C=C/c1ccc(/C=N/NC(=O)c2cccc(Cl)c2)cc1)c1cccc(Cl)c1 | > 64 | 32 (≈ 75.6 µM) | 32 (≈ 75.6 µM) | 32 (≈ 75.6 µM) | 32 (≈ 75.6 µM) | 32 (≈ 75.6 µM) |  | > 64 | 32 (≈ 75.6 µM) | > 64 | > 64 | 32 (≈ 75.6 µM) | 32 (≈ 75.6 µM) | 32 (≈ 75.6 µM)
6 | N=C(N)N/N=C/c1ccc(/C=C/C(=O)c2ccccc2Cl)cc1 | 8 (≈ 24.5 µM) | 16 (≈ 49 µM) | 8 (≈ 24.5 µM) | 8 (≈ 24.5 µM) | 8 (≈ 24.5 µM) | 8 (≈ 24.5 µM) | 84.1 | 8 (≈ 24.5 µM) | 8 (≈ 24.5 µM) | 8 (≈ 24.5 µM) | 8 (≈ 24.5 µM) | 8 (≈ 24.5 µM) | 8 (≈ 24.5 µM) | 16 (≈ 49 µM)
7 | O=C(N/N=C/c1ccc(/C=C/C(=O)c2ccc(Cl)cc2Cl)cc1)c1ccncc1 | > 64 | 16 (≈ 37.7 µM) | 16 (≈ 37.7 µM) | 16 (≈ 37.7 µM) | 16 (≈ 37.7 µM) | 16 (≈ 37.7 µM) | 83.8 | 4 (≈ 9.43 µM) | 32 (≈ 75.4 µM) | > 64 | 32 (≈ 75.4 µM) | 8 (≈ 18.9 µM) | 16 (≈ 37.7 µM) | 32 (≈ 75.4 µM)
8 | COc1c(N2C[C@@H]3CCCN[C@@H]3C2)c(F)cc2c(=O)c(C(=O)O)cn(C3CC3)c12 [MOXIFLOXACIN] |  |  | 2 (≈ 4.98 µM) |  |  |  |  |  |  | 1 (≈ 2.49 µM) | 0.25 (≈ 0.623 µM) | 0.25 (≈ 0.623 µM) |  | 128 (≈ 319 µM)
9 | CC(C)Cc1ccc(C(C)C(=O)O)cc1 (stereo not drawn) [IBUPROFEN] |  |  |  |  |  |  | 87.4 |  |  |  |  |  |  | 
10 | Cc1ccc(C(=O)/C=C/c2ccc(/C=N/NC(=N)N)cc2)c(C)c1 | 4 (≈ 12.5 µM) | 8 (≈ 25 µM) | 8 (≈ 25 µM) | 8 (≈ 25 µM) | 8 (≈ 25 µM) | 4 (≈ 12.5 µM) | 64.2 | 8 (≈ 25 µM) | 8 (≈ 25 µM) | 8 (≈ 25 µM) | 8 (≈ 25 µM) | 4 (≈ 12.5 µM) | 8 (≈ 25 µM) | 8 (≈ 25 µM)
11 | N=C(N)N/N=C/c1ccc(/C=C/C(=O)c2ccccc2F)cc1 | 4 (≈ 12.9 µM) | 8 (≈ 25.8 µM) | 8 (≈ 25.8 µM) | 8 (≈ 25.8 µM) | 8 (≈ 25.8 µM) | 4 (≈ 12.9 µM) | 91.7 | 8 (≈ 25.8 µM) | 8 (≈ 25.8 µM) | 4 (≈ 12.9 µM) | 8 (≈ 25.8 µM) | 4 (≈ 12.9 µM) | 8 (≈ 25.8 µM) | 16 (≈ 51.6 µM)
12 | OC(Cn1cncn1)(Cn1cncn1)c1ccc(F)cc1F [FLUCONAZOLE] |  |  |  |  |  |  |  | 1 (≈ 3.27 µM) |  |  |  |  |  | 
13 | Cc1onc(-c2ccccc2)c1C(=O)N[C@@H]1C(=O)N2[C@@H]1SC(C)(C)[C@@H]2C(=O)O [OXACILLIN] |  | 1 (≈ 2.49 µM) |  | > 64 | 1 (≈ 2.49 µM) | > 64 |  |  |  |  |  |  |  | 
14 | O=C(N/N=C/c1ccc(/C=C/C(=O)c2ccccc2F)cc1)c1ccncc1 | > 64 | 64 (≈ 171 µM) | 64 (≈ 171 µM) | 64 (≈ 171 µM) | 64 (≈ 171 µM) | 64 (≈ 171 µM) | 51.2 | > 64 | 64 (≈ 171 µM) | > 64 | 16 (≈ 42.9 µM) | 64 (≈ 171 µM) | 64 (≈ 171 µM) | 64 (≈ 171 µM)
15 | O=C(N/N=C/c1ccc(/C=C/C(=O)c2ccccc2Br)cc1)c1ccccc1 | > 64 | > 64 | > 64 | > 64 | > 64 | > 64 |  | > 64 | > 64 | > 64 | > 64 | > 64 | > 64 | > 64
16 | O=C(/C=C/c1ccc(/C=N/NC(=O)c2ccncc2)cc1)c1ccc(F)cc1 | > 64 | 32 (≈ 85.7 µM) | 64 (≈ 171 µM) | 32 (≈ 85.7 µM) | 32 (≈ 85.7 µM) | 32 (≈ 85.7 µM) | 51.1 | > 64 | 64 (≈ 171 µM) | > 64 | 64 (≈ 171 µM) | 32 (≈ 85.7 µM) | 32 (≈ 85.7 µM) | 64 (≈ 171 µM)
17 | N=C(N)N/N=C/c1ccc(/C=C/C(=O)c2ccc(Br)cc2)cc1 | 2 (≈ 5.39 µM) | 16 (≈ 43.1 µM) | 4 (≈ 10.8 µM) | 8 (≈ 21.5 µM) | 4 (≈ 10.8 µM) | 2 (≈ 5.39 µM) | 68.9 | 2 (≈ 5.39 µM) | 2 (≈ 5.39 µM) | 2 (≈ 5.39 µM) | 4 (≈ 10.8 µM) | 2 (≈ 5.39 µM) | 4 (≈ 10.8 µM) | 32 (≈ 86.2 µM)
18 | O=C(N/N=C/c1ccc(/C=C/C(=O)c2ccccc2F)cc1)c1ccccc1 | > 64 | > 64 | > 64 | 64 (≈ 172 µM) | > 64 | 64 (≈ 172 µM) |  | > 64 | > 64 | > 64 | > 64 | > 64 | > 64 | > 64
19 | N=C(N)N/N=C/c1ccc(/C=C/C(=O)c2ccc(F)cc2)cc1 | 4 (≈ 12.9 µM) | 8 (≈ 25.8 µM) | 8 (≈ 25.8 µM) | 8 (≈ 25.8 µM) | 8 (≈ 25.8 µM) | 4 (≈ 12.9 µM) | 90.7 | 4 (≈ 12.9 µM) | 4 (≈ 12.9 µM) | 4 (≈ 12.9 µM) | 8 (≈ 25.8 µM) | 4 (≈ 12.9 µM) | 8 (≈ 25.8 µM) | 8 (≈ 25.8 µM)
20 | N=C(N)N/N=C/c1ccc(/C=C/C(=O)c2ccc(Cl)cc2)cc1 | 2 (≈ 6.12 µM) | 8 (≈ 24.5 µM) | 4 (≈ 12.2 µM) | 4 (≈ 12.2 µM) | 4 (≈ 12.2 µM) | 2 (≈ 6.12 µM) | 56.4 | 4 (≈ 12.2 µM) | 2 (≈ 6.12 µM) | 4 (≈ 12.2 µM) | 4 (≈ 12.2 µM) | 2 (≈ 6.12 µM) | 4 (≈ 12.2 µM) | 8 (≈ 24.5 µM)
21 | COc1ccc(C(=O)/C=C/c2ccc(/C=N/NC(=N)N)cc2)cc1 | 8 (≈ 24.8 µM) | 16 (≈ 49.6 µM) | 16 (≈ 49.6 µM) | 16 (≈ 49.6 µM) | 16 (≈ 49.6 µM) | 8 (≈ 24.8 µM) | 57.2 | 8 (≈ 24.8 µM) | 16 (≈ 49.6 µM) | 2 (≈ 6.2 µM) | 8 (≈ 24.8 µM) | 16 (≈ 49.6 µM) | 16 (≈ 49.6 µM) | 32 (≈ 99.3 µM)
22 | CCn1cc(C(=O)O)c(=O)c2cc(F)c(N3CCNCC3)cc21 [NORFLOXACIN] |  | > 64 |  | 8 (≈ 25.1 µM) | > 64 | 4 (≈ 12.5 µM) |  |  |  |  |  |  |  | 
23 | O=C(/C=C/c1ccc(/C=N/NC(=O)c2cccc(Cl)c2)cc1)c1ccc(Cl)cc1 | > 64 | 32 (≈ 75.6 µM) | 32 (≈ 75.6 µM) | 32 (≈ 75.6 µM) | 32 (≈ 75.6 µM) | 32 (≈ 75.6 µM) |  | > 64 | 32 (≈ 75.6 µM) | > 64 | > 64 | 32 (≈ 75.6 µM) | 32 (≈ 75.6 µM) | 32 (≈ 75.6 µM)
24 | COc1c(N2CCNC(C)C2)c(F)cc2c(=O)c(C(=O)O)cn(C3CC3)c12 (stereo not drawn) [GATIFLOXACIN] | 1 (≈ 2.66 µM) | 4 (≈ 10.7 µM) | 4 (≈ 10.7 µM) | 2 (≈ 5.33 µM) | 8 (≈ 21.3 µM) | 2 (≈ 5.33 µM) |  |  | 2 (≈ 5.33 µM) | 2 (≈ 5.33 µM) | 0.5 (≈ 1.33 µM) | 0.25 (≈ 0.666 µM) | 2 (≈ 5.33 µM) | 16 (≈ 42.6 µM)
25 | O=C(N/N=C/c1ccc(/C=C/C(=O)c2ccccc2Cl)cc1)c1ccccc1 | > 64 | 64 (≈ 165 µM) | 64 (≈ 165 µM) | 64 (≈ 165 µM) | 64 (≈ 165 µM) | 64 (≈ 165 µM) |  | > 64 | > 64 | > 64 | > 64 | > 64 | 64 (≈ 165 µM) | > 64
